Test results from patent US20020137929A1, “1 - (3-heterocyclylphenyl) isothiourea, -isourea, -guanidine and -amidine herbicidal agents” (Intellectual Property Department, BASF Aktiengesellschaft, priority 1998, published 2002).

How the values were obtained:
[1] = system: AMBEL (Ragweed, Common); test: Postemergence herbicidal evaluation; assay type: in vivo, Ambrosia artemisifolia
Summary of the method: (§1)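 Rate range approx. 0.0156–0.500 kg/ha. Foliar application at 40 psi to ~2-week seedlings; surfactant 0.5% TWEEN 20 in 50/50 acetone/water. Evaluation 4–5 wk post-treatment by 0–9 visual injury score, means of replicate tests.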

[2] = system: CASOB (Sicklepod); test: Postemergence herbicidal evaluation; assay type: in vivo, Cassia obtusifolia
Summary of the method: as §1

[3] = system: CHEAL (Lambsquarters, Common); test: Postemergence herbicidal evaluation; assay type: in vivo, Chenopodium album
Summary of the method: as §1

[4] = system: IPOHE (Morningglory, Ivyleaf); test: Postemergence herbicidal evaluation; assay type: in vivo, Ipomoea hederacea
Summary of the method: as §1

[5] = system: ECHCG (Barnyardgrass); test: Postemergence herbicidal evaluation; assay type: in vivo, Echinochloa crus-galli
Summary of the method: as §1

[6] = system: GLXMAW (Soybean, Williams); test: Postemergence herbicidal evaluation; assay type: in vivo, Glycine max, (L.) Merr. cv Williams
Summary of the method: as §1

[7] = system: TRZAWR (Wheat, Winter, cv Riband); test: Postemergence herbicidal evaluation; assay type: in vivo, Triticum aestivum
Summary of the method: as §1

[8] = system: ABUTH (Velvetleaf); test: Preemergence herbicidal evaluation; assay type: in vivo, Abutilon theophrasti; settings: rated 4-5 weeks after treatment
Summary of the method: (§2)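 In this greenhouse assay, monocot and dicot seeds are planted in soil and treated prior to emergence with an aqueous acetone spray (about 0.0156-0.500 kg/ha). Plants are assessed visually against control on a 0-9 scale after 4-5 weeks.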

[9] = system: AMBEL (Ragweed, Common); test: Preemergence herbicidal evaluation; assay type: in vivo, Ambrosia artemisifolia; settings: rated 4-5 weeks after treatment
Summary of the method: as §2

[10] = system: CASOB (Sicklepod); test: Preemergence herbicidal evaluation; assay type: in vivo, Cassia obtusifolia; settings: rated 4-5 weeks after treatment
Summary of the method: as §2

[11] = system: CHEAL (Lambsquarters, Common); test: Preemergence herbicidal evaluation; assay type: in vivo, Chenopodium album; settings: rated 4-5 weeks after treatment
Summary of the method: as §2

[12] = system: IPOHE (Morningglory, Ivyleaf); test: Preemergence herbicidal evaluation; assay type: in vivo, Ipomoea hederacea; settings: rated 4-5 weeks after treatment
Summary of the method: as §2

[13] = system: GLXMAW (Soybean, Williams); test: Preemergence herbicidal evaluation; assay type: in vivo, Glycine max, (L.) Merr. cv Williams; settings: rated 4-5 weeks after treatment
Summary of the method: as §2

[14] = system: ORYSAT (Rice, Tebonnet); test: Preemergence herbicidal evaluation; assay type: in vivo, Oryza sativa, (L.) Tebonnet; settings: rated 4-5 weeks after treatment
Summary of the method: as §2

[15] = system: MOOVA (Monochoria); test: Preemergence weed control under flooded paddy conditions; assay type: in vivo, Monochoria vaginalis; settings: rated 3-4 weeks after treatment
Summary of the method: (§3)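 Silt loam, seeds in top 0.5 cm; flood held 1.5-3 cm; test cpd as acetone/water 50/50 into flood water, ~0.0313-0.500 kg/ha a.i.; greenhouse 3-4 wk; visual 0-9 score vs control.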

[16] = system: SAGPY (Arrowhead (Pygmaea)); test: as above; assay type: in vivo, Sagittaria pygmaea; settings: rated 3-4 weeks after treatment
Summary of the method: as §3

For `CCOC(=O)CN1C(=O)C(CC(=O)OC(C)C)SC1=Nc1cc(-n2c(=O)cc(C(F)(F)F)n(C)c2=O)c(F)cc1Cl` (centres unmarked) [Compound 60, 2-{{2-Chloro-5-[3,6-dihydro-3-methyl-2,6-dioxo-4-(trifluoromethyl)-1(2H)-pyrimidinyl]-4-fluoro-phenyl}imino}-4-oxo-3,5-thiazolidinediacetic acid, 3-ethyl isopropyl ester], the “Postemergence herbicidal rating AMBEL” value ([1]; Rate 0.0158 kg/ha) was 7.0, the “Postemergence herbicidal rating AMBEL” value ([1]; Rate 0.0315 kg/ha) was 9.0 and the “Postemergence herbicidal rating AMBEL” value ([1]; Rate 0.0630 kg/ha) was 9.0. For the same compound, the “Postemergence herbicidal rating CASOB” value ([2]; Rate 0.0158 kg/ha) was 0.0, the “Postemergence herbicidal rating CASOB” value ([2]; Rate 0.0315 kg/ha) was 0.0 and the “Postemergence herbicidal rating CASOB” value ([2]; Rate 0.0630 kg/ha) was 3.0. The “Postemergence herbicidal rating CHEAL” value ([3]; Rate 0.0158 kg/ha) was 4.0, the “Postemergence herbicidal rating CHEAL” value ([3]; Rate 0.0315 kg/ha) was 4.0 and the “Postemergence herbicidal rating CHEAL” value ([3]; Rate 0.0630 kg/ha) was 9.0. The “Postemergence herbicidal rating IPOHE” value ([4]; Rate 0.0158 kg/ha) was 9.0, the “Postemergence herbicidal rating IPOHE” value ([4]; Rate 0.0315 kg/ha) was 9.0 and the “Postemergence herbicidal rating IPOHE” value ([4]; Rate 0.0630 kg/ha) was 9.0. The “Postemergence herbicidal rating ECHCG” value ([5]; Rate 0.0158 kg/ha) was 0.0, the “Postemergence herbicidal rating ECHCG” value ([5]; Rate 0.0315 kg/ha) was 0.0 and the “Postemergence herbicidal rating ECHCG” value ([5]; Rate 0.0630 kg/ha) was 0.0. The “Postemergence herbicidal rating GLXMAW” value ([6]; Rate 0.0158 kg/ha) was 6.5, the “Postemergence herbicidal rating GLXMAW” value ([6]; Rate 0.0315 kg/ha) was 6.5 and the “Postemergence herbicidal rating GLXMAW” value ([6]; Rate 0.0630 kg/ha) was 7.0. The “Postemergence herbicidal rating TRZAWR” value ([7]; Rate 0.0158 kg/ha) was 4.5, the “Postemergence herbicidal rating TRZAWR” value ([7]; Rate 0.0315 kg/ha) was 4.5 and the “Postemergence herbicidal rating TRZAWR” value ([7]; Rate 0.0630 kg/ha) was 4.5. For the same compound, the “Preemergence herbicidal rating ABUTH” value ([8]; rate 0.0156 kg/ha) was 2.0, the “Preemergence herbicidal rating ABUTH” value ([8]; rate 0.0313 kg/ha) was 9.0 and the “Preemergence herbicidal rating ABUTH” value ([8]; rate 0.0625 kg/ha) was 7.0. For the same compound, the “Preemergence herbicidal rating ABUTH” value ([8]; rate 0.1250 kg/ha) was 9.0, the “Preemergence herbicidal rating ABUTH” value ([8]; rate 0.2500 kg/ha) was 9.0 and the “Preemergence herbicidal rating ABUTH” value ([8]; rate 0.5000 kg/ha) was 9.0. For the same compound, the “Preemergence herbicidal rating AMBEL” value ([9]; rate 0.0156 kg/ha) was 0.0, the “Preemergence herbicidal rating AMBEL” value ([9]; rate 0.0313 kg/ha) was 0.0 and the “Preemergence herbicidal rating AMBEL” value ([9]; rate 0.0625 kg/ha) was 2.0. The “Preemergence herbicidal rating AMBEL” value ([9]; rate 0.1250 kg/ha) was 7.0, the “Preemergence herbicidal rating AMBEL” value ([9]; rate 0.2500 kg/ha) was 7.0 and the “Preemergence herbicidal rating AMBEL” value ([9]; rate 0.5000 kg/ha) was 9.0. The “Preemergence herbicidal rating CASOB” value ([10]; rate 0.0156 kg/ha) was 0.0, the “Preemergence herbicidal rating CASOB” value ([10]; rate 0.0313 kg/ha) was 0.0 and the “Preemergence herbicidal rating CASOB” value ([10]; rate 0.0625 kg/ha) was 0.0. The “Preemergence herbicidal rating CASOB” value ([10]; rate 0.1250 kg/ha) was 1.0, the “Preemergence herbicidal rating CASOB” value ([10]; rate 0.2500 kg/ha) was 5.5 and the “Preemergence herbicidal rating CASOB” value ([10]; rate 0.5000 kg/ha) was 4.0. For the same compound, the “Preemergence herbicidal rating CHEAL” value ([11]; rate 0.0156 kg/ha) was 9.0, the “Preemergence herbicidal rating CHEAL” value ([11]; rate 0.0313 kg/ha) was 8.0 and the “Preemergence herbicidal rating CHEAL” value ([11]; rate 0.0625 kg/ha) was 9.0. The “Preemergence herbicidal rating CHEAL” value ([11]; rate 0.1250 kg/ha) was 9.0, the “Preemergence herbicidal rating CHEAL” value ([11]; rate 0.2500 kg/ha) was 9.0 and the “Preemergence herbicidal rating CHEAL” value ([11]; rate 0.5000 kg/ha) was 9.0. For the same compound, the “Preemergence herbicidal rating IPOHE” value ([12]; rate 0.0156 kg/ha) was 0.0, the “Preemergence herbicidal rating IPOHE” value ([12]; rate 0.0313 kg/ha) was 0.0 and the “Preemergence herbicidal rating IPOHE” value ([12]; rate 0.0625 kg/ha) was 0.0. The “Preemergence herbicidal rating IPOHE” value ([12]; rate 0.1250 kg/ha) was 2.0, the “Preemergence herbicidal rating IPOHE” value ([12]; rate 0.2500 kg/ha) was 5.0 and the “Preemergence herbicidal rating IPOHE” value ([12]; rate 0.5000 kg/ha) was 9.0. For the same compound, the “Preemergence herbicidal rating GLXMAW” value ([13]; rate 0.0156 kg/ha) was 1.0, the “Preemergence herbicidal rating GLXMAW” value ([13]; rate 0.0313 kg/ha) was 0.5 and the “Preemergence herbicidal rating GLXMAW” value ([13]; rate 0.0625 kg/ha) was 1.5. For the same compound, the “Preemergence herbicidal rating GLXMAW” value ([13]; rate 0.1250 kg/ha) was 3.0, the “Preemergence herbicidal rating GLXMAW” value ([13]; rate 0.2500 kg/ha) was 3.5 and the “Preemergence herbicidal rating GLXMAW” value ([13]; rate 0.5000 kg/ha) was 6.0. For the same compound, the “Preemergence herbicidal rating ORYSAT” value ([14]; rate 0.0156 kg/ha) was 0.0, the “Preemergence herbicidal rating ORYSAT” value ([14]; rate 0.0313 kg/ha) was 0.0 and the “Preemergence herbicidal rating ORYSAT” value ([14]; rate 0.0625 kg/ha) was 0.0. The “Preemergence herbicidal rating ORYSAT” value ([14]; rate 0.1250 kg/ha) was 0.5, the “Preemergence herbicidal rating ORYSAT” value ([14]; rate 0.2500 kg/ha) was 2.0 and the “Preemergence herbicidal rating ORYSAT” value ([14]; rate 0.5000 kg/ha) was 7.0. The “MOOVA herbicidal effect rating” value ([15]; 0.0313 kg/ha) was 9.0, the “MOOVA herbicidal effect rating” value ([15]; 0.0625 kg/ha) was 9.0 and the “MOOVA herbicidal effect rating” value ([15]; 0.1250 kg/ha) was 9.0. The “MOOVA herbicidal effect rating” value ([15]; 0.2500 kg/ha) was 9.0, the “SAGPY herbicidal effect rating” value ([16]; 0.0313 kg/ha) was 3.0 and the “SAGPY herbicidal effect rating” value ([16]; 0.0625 kg/ha) was 4.0. The “SAGPY herbicidal effect rating” value ([16]; 0.1250 kg/ha) was 9.0 and the “SAGPY herbicidal effect rating” value ([16]; 0.2500 kg/ha) was 9.0.
